Reference: patent US20100222548A1, “METHOD FOR PRODUCING CONDENSATION PRODUCTS FROM N-SUBSTITUTED GLYCINE DERIVATIVES(PEPTOIDS) BY SEQUENTIAL UGI-MULTICOMPONENT REACTIONS” (priority 2006, published 2010)
Where a SMILES comes first, the peptide text is derived from it. [ ]: non-standard residue; d: D form. Gly(Nα-4-Cl-benzyl) = O=C(O)CNCc1ccc(Cl)cc1; Gly(N-(CH2)3OMe) = COCCCNCC(=O)O; N(iPr)Gly = CC(C)NCC(=O)O

Test system: Vibrio fischeri

## COCCCN(CC(=O)NCC(=O)O)C(=O)CNC(=O)CN(C(=O)CNC(=O)CN(Cc1ccc(Cl)cc1)C(=O)CN)C(C)C (H-G[Gly(Nα-4-Cl-benzyl)]G[N(iPr)Gly]G[Gly(N-(CH2)3OMe)]G-OH)
  IC50: ~10 µM
